According to patent US4244970A, “Method of treating inflammation” (Forsyth Dental Infirmary for Children, priority 1979, dated 1981):

Molecular target: prostaglandin synthetase (Ovis aries, UniProt P05979)
Assay: Prostaglandin synthetase inhibition, sheep vesicular gland microsomal preparation (oxygen electrode)
Format: biochemical
Settings: sheep vesicular gland microsomes; 0.1 M Tris HCl pH 8.0; inhibitor added 1 minute before arachidonate; read-out: [I]50, concentration of an inhibitor that reduced prostaglandin synthesis by 50%
Experimental: Prostaglandin synthetase activity was determined by following oxygen tension in a closed reaction chamber using a Clark-type oxygen electrode. For each assay 2.9 ml of 0.1 M Tris HCl buffer, pH 8.0, 10 ul of 0.2 M phenol, and 50 ul of enzyme suspension (2.5 mg microsomal preparation) were added to the reaction chamber. Ten ul of inhibitor in ethanol was added 1 minute prior to initiation of the reaction. The reaction was initiated by addition of 10 ul of 3.6 mM arachidonate solution. The concentration of an inhibitor that reduced prostaglandin synthesis by 50% ([I]50) was determined from plots of activity vs log concentration of inhibitor.

Chain of prostaglandin synthetase (P05979 25-600): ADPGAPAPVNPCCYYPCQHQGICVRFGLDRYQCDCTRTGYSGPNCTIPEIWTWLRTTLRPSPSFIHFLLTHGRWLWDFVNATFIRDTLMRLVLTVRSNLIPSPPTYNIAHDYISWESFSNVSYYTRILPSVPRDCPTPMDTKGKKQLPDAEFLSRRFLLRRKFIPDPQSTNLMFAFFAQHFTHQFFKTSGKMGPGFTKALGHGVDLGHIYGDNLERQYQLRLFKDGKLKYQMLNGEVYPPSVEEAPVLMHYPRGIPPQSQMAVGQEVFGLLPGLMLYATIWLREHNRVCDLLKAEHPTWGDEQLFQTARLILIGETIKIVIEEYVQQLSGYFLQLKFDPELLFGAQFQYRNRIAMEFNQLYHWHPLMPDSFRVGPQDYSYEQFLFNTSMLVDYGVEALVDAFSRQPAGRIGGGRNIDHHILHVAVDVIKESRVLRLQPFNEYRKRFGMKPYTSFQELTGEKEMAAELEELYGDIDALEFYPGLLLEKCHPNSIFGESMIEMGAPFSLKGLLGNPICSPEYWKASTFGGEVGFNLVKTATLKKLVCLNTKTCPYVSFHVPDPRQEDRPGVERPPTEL

IC50: 3.8 µM
SMILES: O=C(c1ccccc1)c1ccccc1O [2-hydroxybenzophenone]
